From ChEMBL document CHEMBL3046685, “Otebo bean (Phaseolus vulgaris) sensitivity to pre-emergence herbicides” (Crop Prot, 2006) come the findings set out here.

Data set [1] deals with Phaseolus vulgaris. The experiment in a line: Phytotoxicity in Phaseolus vulgaris (otebo bean) assessed as change in moisture content at 1250 to 2500 g ai/ha applied as spray during preemergence treatment for 1 to 2 days. It counts as organism-based. The conditions noted are these: in vivo, other.
Data set [2] has as its system Vigna angularis. The experiment in a line: Phytotoxicity in Vigna angularis (adzuki bean) assessed as reduction in shoot dry weight at 2500 g ai/ha applied prior to planting relative to control. It counts as organism-based. Details: scale not given: the % may be the effect or the level left. The conditions noted are these: in vivo, other.
Data set [3] has as its system Phaseolus vulgaris. The experiment in a line: Phytotoxicity in Phaseolus vulgaris (otebo bean) assessed as visual injury at 1250 g ai/ha applied as spray during pre-emergence treatment for 1 to 2 days measured 7 days post emergence relative to untreated control. It counts as organism-based. The conditions noted are these: in vivo, other.
Data set [4] deals with Phaseolus vulgaris. Kind of data set: Increase in Phaseolus vulgaris (otebo bean) yield at 1250 g ai/ha applied as spray during pre-emergence treatment for 1 to 2 days (reference value: 3.8 t/ha). The data set is classed as functional.
The test system of data set [5] is Phaseolus vulgaris. Kind of data set: Phytotoxicity in Phaseolus vulgaris (otebo bean) assessed as visual injury at 1250 g ai/ha applied as spray during pre-emergence treatment for 1 to 2 days measured 14 days post emergence relative to untreated control. The data set is classed as organism-based. The conditions noted are these: in vivo, other.
In data set [6] the test system is Phaseolus vulgaris. Kind of data set: Phytotoxicity in Phaseolus vulgaris (otebo bean) assessed as visual injury at 1250 g ai/ha applied as spray during pre-emergence treatment for 1 to 2 days measured 28 days post emergence relative to untreated control. The conditions noted are these: in vivo, other. The data set is classed as organism-based.
Data set [7] has as its system Vigna angularis. The experiment in a line: Phytotoxicity in Vigna angularis (adzuki bean) assessed as visual injury at 2500 g ai/ha applied prior to planting relative to control. It counts as organism-based. Conditions: in vivo, other.
Data set [8] relates to Phaseolus vulgaris. The experiment in a line: Phytotoxicity in Phaseolus vulgaris (otebo bean) assessed as visual injury at 2500 g ai/ha applied as spray during pre-emergence treatment for 1 to 2 days measured 7 days post emergence relative to untreated control. The conditions noted are these: in vivo, other. It counts as organism-based.
The test system of data set [9] is Vigna angularis. The experiment in a line: Phytotoxicity in Vigna angularis (adzuki bean) assessed as reduction in crop yield at 2500 g ai/ha applied prior to planting relative to control. The data set is classed as organism-based. Conditions: in vivo, other.
Data set [10] deals with Phaseolus vulgaris. The experiment in a line: Phytotoxicity in Phaseolus vulgaris (otebo bean) assessed as visual injury at 2500 g ai/ha applied as spray during pre-emergence treatment for 1 to 2 days measured 14 days post emergence relative to untreated control. The conditions noted are these: in vivo, other. The data set is classed as organism-based.
The subject of data set [11] is Phaseolus vulgaris. Kind of data set: Phytotoxicity in Phaseolus vulgaris (otebo bean) assessed as plant height at 2500 g ai/ha applied as spray during pre-emergence treatment for 1 to 2 days measured 28 days post emergence (reference value: 29 cm). It counts as organism-based. The conditions noted are these: in vivo, other.
Data set [12] has as its system Phaseolus vulgaris. Kind of data set: Phytotoxicity in Phaseolus vulgaris (otebo bean) assessed as shoot dry weight at 2500 g ai/ha applied as spray during pre-emergence treatment for 1 to 2 days measured 42 days post emergence (reference value: 164 g). The data set is classed as organism-based. The conditions noted are these: in vivo, other.
Data set [13] concerns Phaseolus vulgaris. The experiment in a line: Phytotoxicity in Phaseolus vulgaris (otebo bean) assessed as visual injury at 2500 g ai/ha applied as spray during pre-emergence treatment for 1 to 2 days measured 28 days post emergence relative to untreated control. It counts as organism-based. The conditions noted are these: in vivo, other.
Data set [14] concerns Phaseolus vulgaris. The experiment in a line: Phytotoxicity in Phaseolus vulgaris (otebo bean) assessed as shoot dry weight at 1250 g ai/ha applied as spray during pre-emergence treatment for 1 to 2 days measured 42 days post emergence (reference value: 164 g). The data set is classed as organism-based. The conditions noted are these: in vivo, other.
For data set [15], the system named is Phaseolus vulgaris. The experiment in a line: Phytotoxicity in Phaseolus vulgaris (otebo bean) assessed as plant height at 1250 g ai/ha applied as spray during pre-emergence treatment for 1 to 2 days measured 28 days post emergence (reference value: 29 cm). It counts as organism-based. The conditions noted are these: in vivo, other.
The subject of data set [16] is Phaseolus vulgaris. The experiment in a line: Increase in Phaseolus vulgaris (otebo bean) yield at 2500 g ai/ha applied as spray during pre-emergence treatment for 1 to 2 days (reference value: 3.8 t/ha). It counts as functional.
For data set [17], the system named is Phaseolus vulgaris. The experiment in a line: Phytotoxicity in Phaseolus vulgaris (otebo bean) assessed as visual injury at 1600 g ai/ha applied as spray during pre-emergence treatment for 1 to 2 days measured 7 days post emergence relative to untreated control. The data set is classed as organism-based. The conditions noted are these: in vivo, other.
For data set [18], the system named is Phaseolus vulgaris. Kind of data set: Phytotoxicity in Phaseolus vulgaris (otebo bean) assessed as shoot dry weight at 3200 g ai/ha applied as spray during pre-emergence treatment for 1 to 2 days measured 42 days post emergence (reference value: 164 g). It counts as organism-based. The conditions noted are these: in vivo, other.
Data set [19] relates to Phaseolus vulgaris. Kind of data set: Phytotoxicity in Phaseolus vulgaris (otebo bean) assessed as visual injury at 1600 g ai/ha applied as spray during pre-emergence treatment for 1 to 2 days measured 28 days post emergence relative to untreated control. It counts as organism-based. Conditions: in vivo, other.
The subject of data set [20] is Phaseolus vulgaris. The experiment in a line: Phytotoxicity in Phaseolus vulgaris (otebo bean) assessed as plant height at 3200 g ai/ha applied as spray during pre-emergence treatment for 1 to 2 days measured 28 days post emergence (reference value: 29 cm). It counts as organism-based. The conditions noted are these: in vivo, other.
Data set [21] has as its system Phaseolus vulgaris. The experiment in a line: Increase in Phaseolus vulgaris (otebo bean) yield at 1600 g ai/ha applied as spray during pre-emergence treatment for 1 to 2 days (reference value: 3.8 t/ha). The data set is classed as functional.
In data set [22] the test system is Phaseolus vulgaris. The experiment in a line: Phytotoxicity in Phaseolus vulgaris (otebo bean) assessed as visual injury at 3200 g ai/ha applied as spray during pre-emergence treatment for 1 to 2 days measured 28 days post emergence relative to untreated control. It counts as organism-based. Conditions: in vivo, other.
For data set [23], the system named is Phaseolus vulgaris. Kind of data set: Phytotoxicity in Phaseolus vulgaris (otebo bean) assessed as plant height at 1600 g ai/ha applied as spray during pre-emergence treatment for 1 to 2 days measured 28 days post emergence (reference value: 29 cm). It counts as organism-based. Conditions: in vivo, other.
For data set [24], the system named is Phaseolus vulgaris. The experiment in a line: Phytotoxicity in Phaseolus vulgaris (otebo bean) assessed as visual injury at 1600 g ai/ha applied as spray during pre-emergence treatment for 1 to 2 days measured 14 days post emergence relative to untreated control. It counts as organism-based. The conditions noted are these: in vivo, other.
In data set [25] the test system is Phaseolus vulgaris. Kind of data set: Phytotoxicity in Phaseolus vulgaris (otebo bean) assessed as visual injury at 3200 g ai/ha applied as spray during pre-emergence treatment for 1 to 2 days measured 14 days post emergence relative to untreated control. It counts as organism-based. The conditions noted are these: in vivo, other.
In data set [26] the test system is Phaseolus vulgaris. The experiment in a line: Increase in Phaseolus vulgaris (otebo bean) yield at 3200 g ai/ha applied as spray during pre-emergence treatment for 1 to 2 days (reference value: 3.8 t/ha). It counts as functional.
Data set [27] deals with Phaseolus vulgaris. The experiment in a line: Phytotoxicity in Phaseolus vulgaris (otebo bean) assessed as visual injury at 3200 g ai/ha applied as spray during pre-emergence treatment for 1 to 2 days measured 7 days post emergence relative to untreated control. The data set is classed as organism-based. Conditions: in vivo, other.
Data set [28] has as its system Phaseolus vulgaris. Kind of data set: Phytotoxicity in Phaseolus vulgaris (otebo bean) assessed as shoot dry weight at 1600 g ai/ha applied as spray during pre-emergence treatment for 1 to 2 days measured 42 days post emergence (reference value: 164 g). The conditions noted are these: in vivo, other. It counts as organism-based.
In data set [29] the test system is Phaseolus vulgaris. The experiment in a line: Phytotoxicity in Phaseolus vulgaris (otebo bean) assessed as change in moisture content at 1600 to 3200 g ai/ha applied as spray during preemergence treatment for 1 to 2 days. The data set is classed as organism-based. The conditions noted are these: in vivo, other.

With `COCC(C)N(C(=O)CCl)c1c(C)csc1C` (centres undefined) [DIMETHENAMID], the Activity entry in the data set with Phaseolus vulgaris [1] is “Non-toxic”; in the data set on Vigna angularis [2] it was 53%; in the data set with Phaseolus vulgaris [3], 1%; with Phaseolus vulgaris [5], 1%; with Phaseolus vulgaris [6], 0%; in the data set on Vigna angularis [7] it was 37%. Further, the Activity with Phaseolus vulgaris [8] is listed as 4%; in the data set on Phaseolus vulgaris [10] it was 3%; with Phaseolus vulgaris [11], 29 cm; with Phaseolus vulgaris [12], 154 g; with Phaseolus vulgaris [13] it was 1%; in the data set with Phaseolus vulgaris [14], 167 g. Moreover, in the data set on Phaseolus vulgaris [15], the Activity came to 30 cm. Further, the Crop_yield is listed as 4.5 tons/ha in the data set with Phaseolus vulgaris [4], 38% in the data set with Vigna angularis [9] and 4.5 tons/ha in the data set on Phaseolus vulgaris [16].
As to `CCc1cccc(C)c1N(C(=O)CCl)[C@@H](C)COC` [S-METOLACHLOR], the Activity with Phaseolus vulgaris [17] worked out at 2%; in the data set on Phaseolus vulgaris [18], 164 g; in the data set with Phaseolus vulgaris [19], 0%; in the data set with Phaseolus vulgaris [20] it was 29 cm; in the data set on Phaseolus vulgaris [22] it was 0%; with Phaseolus vulgaris [23] it was 30 cm. Moreover, the Activity is on record as 1% in the data set with Phaseolus vulgaris [24]; 2% in the data set with Phaseolus vulgaris [25]; 4% with Phaseolus vulgaris [27]; 175 g in the data set on Phaseolus vulgaris [28]; “Non-toxic” in the data set with Phaseolus vulgaris [29]. Besides, the Crop_yield in the data set with Phaseolus vulgaris [21] worked out at 4.1 tons/ha; with Phaseolus vulgaris [26], 4.6 tons/ha.
